# Results taken from US8309535B2, “Compositions and methods to treat recurrent medical conditions” (priority 2003, dated 2012).
# Where a name gives a salt, the structure may show the parent alone.
# Tests used:
# [1] = test system: subjects having specific phobias; details: cited from earlier work
# [2] = cited from earlier work
# [3] = test system: subjects on chronic dosing schedules (chronically ill with tuberculosis); details: 500-1000 mg/day, side effects correlate with dosage amount; cited from earlier work
# [4] = test system: subject afflicted with recurring neuropathic pain; experiment: Example 1: treatment of a subject with recurring neuropathic pain; type: in vivo, human
# Method: After seven days, the dose of amitriptyline was doubled to 20 mg.
# [5] = test system: subject with paralytic sexual performance anxiety; details: subject unresponsive to purely behavioral interventions; cited from earlier work
structure (smiles),measurement,setting,value
"N[C@@H]1CON=C1O [DCS, D-cycloserine]",average number of psychotherapy sessions to reach a clinical cure,"[1]; DCS in conjunction with psychotherapy, psychotherapy alone required an average of eight sessions",two
same,fewer therapy sessions needed to reach clinical cure,"[1]; DCS with cognitive behavioral therapy sessions, phobic disorders",75%
same,time of peak blood levels after dosing,[2]; after dosing,3 to 8 h
same,half-life,[2]; in vivo,10 h
same,infrequent side effects,[3],"drowsiness, headache, confusion, tremor, vertigo, and memory difficulties, paresthesias, and seizure"
CN(C)CCC=C1c2ccccc2CCc2ccccc21 [amitriptyline hydrochloride],effect on pain,[4]; 10 mg per day for seven days,little effect on the pain
same,effect on pain,"[4]; 20 mg per day, after two days on the higher dose",substantially subsided
CCCc1nn(C)c2c(=O)[nH]c(-c3cc(S(=O)(=O)N4CCN(C)CC4)ccc3OCC)nc12 [sildenafil],response to pharmaceutical treatment,[5],responded to pharmaceutical treatment
